Tested on: peroxidase
Test: Activity of the isolated peroxidase towards various hydrogen donors
Assay type: biochemical, Coprinus cinereus IFO 30116
Conditions: not given
Experimental: Its action is shown by the followina reaction formula: [drawing 2] where AH2 is a hydrogen donor, and A is the oxidized hydrogen donor.
The enzyme was assayed for activity with respect to a variety of hydrogen donors.
Values snown in Taoie 2 are relative ones with that of phenol set at 100%.

Molecule	Strength of Action
Cc1cc(-c2ccc(N)c(C)c2)ccc1N [o-tolidine]	5400%

Same assay, conditions: relative values with that of phenol set at 100%; peroxidase of Coprinus cinereus IFO 30116

Molecule	Strength of Action
Oc1ccccc1O [Catechol]	460%
COc1ccccc1O [Guaiacol]	200%
Oc1ccc(O)cc1 [Hydroquinone]	57%
Oc1ccccc1 [Phenol]	100 (%)
Oc1cccc(O)c1 [Resorcinol]	0%
COc1cc(-c2ccc(N)c(OC)c2)ccc1N [o-dianisidine]	5400%
Oc1cccc2ccccc12 [α-naphthol]	1200%
δ-hydroquinon	57%
